Source: US20120219500A1, “DIAGNOSTIC AGENT FOR INFECTIOUS DISEASES” (FUJIFILM RI PHARMA CO., LTD., priority 2009, published 2012)
Where two headings read alike, the source gives them in different places.

Columns and labels:
[1] = system: attenuated Mycobacterium bovis (BCG, ATCC35734); type: cell-based; conditions: anaerobic, 37° C.
[2] = system: Bacteroides fragilis (ATCC25285); assay: in vitro uptake of nitroimidazole derivative under anaerobic environment (absorbance of supernatant); type: cell-based; conditions: 37° C.
Bacteroides fragilis = assay: in vitro uptake of radionuclide-labeled nitroimidazole derivatives (gamma counter); type: cell-based; conditions: for uptake by obligate anaerobes compared with facultative anaerobes: 26 to 37 KBq radiolabeled derivative, anaerobic, 37° C., rate of uptake per 10^8 CFU (FIGS. 3-6)
[3] = type: in vivo
[4] = system: Bacteroides fragilis (ATCC25285, NCTC10581); assay: rat subcutaneous infection model, infected skin site; type: in vivo; conditions: SD rat, i.v. 6.5 hours before blood collection
Method: (§1) An in vivo assay was performed using a rat subcutaneous infection model. As the nitroimidazole derivative, Compound 1 or Compound 2 was used. As the microorganism, two strains of Bacteroides fragilis (ATCC25285, NCTC10581), which is susceptible to metronidazole, or E.coli (ATCC25922), which is not susceptible to metronidazole, was used. A 6-week-old male SD rat was administered with 5×10^9 cfu/0.1 ml bacteria suspended in physiological saline subcutaneously into the left thigh, and then served for evaluation four days later. Approximately 0.74 MBq of Compound 1 or Compound 2 was administered via the vena jugularis externa, and three hours later, blood was collected and tissues were excised. Also, for evaluation of inflammation in the infection model, approximately 0.15 MBq of [^67Ga]gallium citrate (FUJIFILM RI Pharma Co., Ltd.), which is a radioactive diagnostic agent for inflammation, was administered via the vena jugularis externa 6.5 hours before blood collection. The viable bacteria in the infected tissue was confirmed by smearing a part of the infected skin tissue on a medium and culturing it. Radioactivity (cpm) of each of ^67Ga and ^125I was measured in blood, in the infected skin site, and in the non-infection site on the skin. Radioactivity of ^125I was measured after attenuating the radioactivity of ^67Ga. The amount accumulated in each tissue and % ID/g (the ratio of radioactivity per tissue weight relative to the radioactivity administered) were calculated.

E.coli (ATCC25922) [5] = assay: as above; type: in vivo; conditions: SD rat, i.v. 6.5 hours before blood collection
Method: as §1

[6] = rat subcutaneous infection model, non-infected skin site; type: in vivo; conditions: SD rat, i.v. 6.5 hours before blood collection
Method: as §1, with “The viable bacteria in the infected tissue was confirmed by smearing a part of the infected skin tissue on a medium and culturing it.” left out

E.coli (ATCC25922) [7] = assay: in vitro uptake of nitroimidazole derivative under anaerobic environment (absorbance of supernatant); type: cell-based; conditions: 100 μM metronidazole, 37° C., rate of uptake per 10^8 CFU (FIG. 1)
[8] = approx. 0.74 MBq i.v., three hours later

Q: For O=[N+]([O-])c1nccn1CC(O)CF (centres unmarked) [[^19F]FMISO, fluoromisonidazole], which “uptake by acid-fast bacteria compared with E.coli” value ([1]; [^19F]FMISO 0.09 mM, E.coli data from Example 1 (FIG. 10)) is on record?
A: Its value is “taken up in a greater amount by nitroimidazole derivative susceptible Mycobacterium tuberculosis in the resting stage of division than by nitroimidazole derivative non-susceptible E.coli”.

Q: What about the “uptake by obligate anaerobes compared with facultative anaerobes” value (from here on “uptake … compared with facultative anaerobes”) ([2]; 70 μM [^19F]FMISO, B.fragilis vs E.coli (FIG. 2)) of the same molecule?
A: The value was “taken up in a greater amount by obligate anaerobes than by facultative anaerobes”.

Q: With “fluorine-18-labeled fluoromisonidazole [[^18F]FMISO]” as the molecule, how does the “uptake … compared with facultative anaerobes” value (Bacteroides fragilis) read?
A: The value was “taken up in a greater amount by obligate anaerobes than by facultative anaerobes”.

Q: What does the source list for O=C(NCCn1ccnc1[N+](=O)[O-])c1cccc(I)c1 [Compound 2, N1-[2-(2-nitro-1H-1-imidazolyl)ethyl]-3-iodobenzamide]?
A: uptake by BCG compared with E.coli ([1]; Compound 2 0.1 mM, rate of uptake per 10^7 CFU (FIG. 9)): clearly taken up in a greater amount by nitroimidazole derivative susceptible BCG than by non-nitroimidazole derivative susceptible E.coli; uptake by obligate anaerobes compared with facultative anaerobes (Bacteroides fragilis): taken up in a greater amount by obligate anaerobes than by facultative anaerobes; amount accumulated in the inflammatory skin site/blood [3, 8]: 0.73±0.11

Q: For O=C([O-])CC(O)(CC(=O)[O-])C(=O)[O-].[67Ga+3] [[^67Ga]gallium citrate], which “amount accumulated in the infected skin site/blood” value ([4]; Bacteroides fragilis (ATCC25285)) is on record?
A: The value was 1.75 ±0.2.

Q: And the “amount accumulated in the infected skin site/blood” value ([4]; Bacteroides fragilis (NCTC10581))?
A: Its value is 1.89±0.4.

Q: And the “amount accumulated in the infected skin site/blood” value (E.coli (ATCC25922) [5])?
A: The value was 1.73±0.7.

Q: And the “amount accumulated in the non-infected skin site/blood” value [6]?
A: The value was 0.41±0.06.

Q: And the “amount accumulated in the inflammatory skin site/blood” value ([3]; rat, in vivo, iv)?
A: The value was 1.61±0.16.

Q: For Cc1ncc([N+](=O)[O-])n1CCNC(=O)c1cccc(I)c1 [Compound 1, [^125I]N1-[2-(2-methyl-5-nitro-1H-1-imidazolyl)ethyl]-3-iodobenzamide], which “uptake … compared with facultative anaerobes” value (Bacteroides fragilis) is on record?
A: Its value is “taken up in a greater amount by obligate anaerobes than by facultative anaerobes”.

Q: What about the “amount accumulated in the inflammatory skin site/blood” value [3, 8] of the same molecule?
A: Its value is 0.85±0.25.

Q: Which “uptake by the facultative anaerobe E.coli” value (E.coli (ATCC25922) [7]) does the source give for Cc1ncc([N+](=O)[O-])n1CCO [Metronidazole, metronidazole] here?
A: Its value is “taken up in little amount”.

Q: What about the “uptake by the obligate anaerobe Bacteroides fragilis” value ([2]; 100 μM metronidazole, rate of uptake per 10^8 CFU (FIG. 1)) of the same molecule?
A: The value was “taken up in a large amount”.

Q: What does the source list for “[^67Ga] Ga-DOTA-(metronidazole)2 [Compound 3]”?
A: uptake by obligate anaerobes compared with facultative anaerobes (Bacteroides fragilis): taken up in a greater amount by obligate anaerobes than by facultative anaerobes; rate of uptake versus number of viable obligate anaerobes (Bacteroides fragilis; 37° C. for 120 minutes, 0.43×10^8 to 6.75×10^8 CFU/mL viable Bacteroides fragilis (FIG. 7)): increased in a manner correlated with the number of viable obligate anaerobes
